Results published in patent publication US10611740B2, “Aryl dihydro-2H-benzo[b][1,4]oxazine sulfonamide and related compounds for use as agonists of RORγ and the treatment of disease” (Lycera Corporation, priority 2015, dated 2020).

What was measured:
[1] = target: T1, Gal4-RORγ-LBD (Homo sapiens, UniProt P51449); test: Gal4-RORγ Luciferase Reporter Assay in HEK-293T Cells; type: cell-based; conditions: HEK-293 cells, luciferase reporter, with 2 μM ursolic acid
T1 construct: expressed in transfected cells; host or cells: HEK-293 cells (pcDNA3.1neo plasmid)
T1 sequence (P51449 269-508 limits assumed): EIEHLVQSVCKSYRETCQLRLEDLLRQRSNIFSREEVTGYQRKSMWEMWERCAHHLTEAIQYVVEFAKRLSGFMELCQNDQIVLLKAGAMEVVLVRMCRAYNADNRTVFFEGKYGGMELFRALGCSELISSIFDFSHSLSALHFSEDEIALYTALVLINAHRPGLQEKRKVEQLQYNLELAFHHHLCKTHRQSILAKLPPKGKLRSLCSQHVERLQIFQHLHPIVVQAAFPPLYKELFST
Procedure, shortened: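 HEK-293 cells were transiently co-transfected with Gal4-RORγ-LBD and pGL4.31 Gal4-luciferase, with ursolic acid added at 2 μM final. Compounds were incubated overnight at 37° C. in 0.2% DMSO and luminescence read with One-Glo. Max Response is the upper plateau of a 4-parameter logistic fit, with signal lacking ursolic acid or compound set to 100.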

[2] = target: T2, RORγ-LBD (Homo sapiens, UniProt P51449); test: RORγ-Ligand Binding Domain (LBD) TR-FRET Assay; type: biochemical;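 for TR-FRET Assay Max Response: 665/615 nm ratio relative to signal without ursolic acid or compound set at 100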
T2 construct: made in house; host or cells: SF9 cells (baculovirus)
T2 sequence (P51449 269-508 limits assumed): T1 sequence (P51449 269-508 limits assumed)
Procedure, shortened: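 His-tagged RORγ-LBD from SF9 baculovirus lysate, ~3 nM final, in 50 mM Tris pH 7.0, 50 mM KCl, 1 mM EDTA, 0.1 mM DTT, 0.01% BSA. Biotinylated SRC1 LXXLL peptide at 200 nM final with 2 μM ursolic acid; TR-FRET read-out, 1% DMSO final.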

Compound	EC50 [1] [nM]	EC50 [2] [nM]	Gal4-RORγ Assay Max Response [1]	TR-FRET Assay Max Response [2]
O=C(O)CC[C@H]1CN(S(=O)(=O)c2cccc(C(F)(F)F)c2)c2cc(-c3cccc(C(F)(F)F)c3F)ccc2O1 [Compound 2N, (S)-3-(6-(2-fluoro-3-(trifluoromethyl)phenyl)-4-((3-(trifluoromethyl)phenyl)-sulfonyl)-3,4-dihydro-2H-benzo[b][1,4]oxazin-2-yl)propanoic acid]	< 500	< 500	*** (The symbol “***” indicates a value in the range of greater than 150 to 200)	*** (The symbol “***” indicates a value in the range of greater than 150 to 200)
Cc1ccccc1-c1ccc2c(c1)N(S(=O)(=O)c1cccc(C(F)(F)F)c1)C[C@H](CCC(=O)O)O2 [Compound 2P, (S)-3-(6-(o-tolyl)-4-((3-(trifluoromethyl)phenyl)-sulfonyl)-3,4-dihydro-2H-benzo[b][1,4]oxazin-2-yl)propanoic acid]	< 500	< 500	*** (The symbol “***” indicates a value in the range of greater than 150 to 200)	*** (The symbol “***” indicates a value in the range of greater than 150 to 200)
COc1ccc(Cl)cc1-c1ccc2c(c1)N(S(=O)(=O)c1cccc(C(F)(F)F)c1)C[C@H](CCC(=O)O)O2 [Compound 2S, (S)-3-(6-(5-chloro-2-methoxyphenyl)-4-((3-(trifluoromethyl)phenyl)-sulfonyl)-3,4-dihydro-2H-benzo[b][1,4]oxazin-2-yl)propanoic acid]	< 500	< 500	** (The symbol “**” indicates a value in the range of greater than 90 to 150)	**** (The symbol “****” indicates a value greater than 200)
COc1cncc(-c2ccc3c(c2)N(S(=O)(=O)c2cccc(C(F)(F)F)c2)C[C@H](CCC(=O)O)O3)c1 [Compound 2V, (S)-3-(6-(5-methoxypyridin-3-yl)-4-((3-(trifluoromethyl)-phenyl)sulfonyl)-3,4-dihydro-2H-benzo[b][1,4]oxazin-2-yl)propanoic acid]	< 500	< 500	** (The symbol “**” indicates a value in the range of greater than 90 to 150)	*** (The symbol “***” indicates a value in the range of greater than 150 to 200)
O=C(O)CC[C@H]1CN(S(=O)(=O)c2cccc(C(F)(F)F)c2)c2cc(-c3ccc(F)cc3Cl)ccc2O1 [Compound 2W, (S)-3-(6-(2-chloro-4-fluorophenyl)-4-((3-(trifluoromethyl)phenyl)-sulfonyl)-3,4-dihydro-2H-benzo[b][1,4]oxazin-2-yl)propanoic acid]	500 to 5000	< 500	** (The symbol “**” indicates a value in the range of greater than 90 to 150)	*** (The symbol “***” indicates a value in the range of greater than 150 to 200)
Cc1ccc(-c2ccc3c(c2)N(S(=O)(=O)c2cccc(C(F)(F)F)c2)C[C@H](CCC(=O)O)O3)cc1 [Compound 2X, (S)-3-(6-(p-tolyl)-4-((3-(trifluoromethyl)phenyl)-sulfonyl)-3,4-dihydro-2H-benzo[b][1,4]oxazin-2-yl)propanoic acid]	< 500	< 500	** (The symbol “**” indicates a value in the range of greater than 90 to 150)	**** (The symbol “****” indicates a value greater than 200)
O=C(O)CC[C@H]1CN(S(=O)(=O)c2cccc(C(F)(F)F)c2)c2cc(-c3cc(C(F)(F)F)ccn3)ccc2O1 [Compound 3, (S)-3-(4-((3-(trifluoromethyl)phenyl)sulfonyl)-6-(4-(trifluoromethyl)pyridin-2-yl)-3,4-dihydro-2H-benzo[b][1,4]oxazin-2-yl)propanoic acid]	500 to 5000	< 500	*** (The symbol “***” indicates a value in the range of greater than 150 to 200)	*** (The symbol “***” indicates a value in the range of greater than 150 to 200)

Continued, in another order:

EC50 [1] [nM]	EC50 [2] [nM]	Compound	Gal4-RORγ Assay Max Response [1]	TR-FRET Assay Max Response [2]
< 500	< 500	O=C(O)CC[C@H]1CN(S(=O)(=O)c2cccc(C(F)(F)F)c2)c2cc(-c3cc(Cl)cc(Cl)c3)ccc2O1 [Compound 2L, (S)-3-(6-(3,5-dichlorophenyl)-4-((3-(trifluoromethyl)phenyl)-sulfonyl)-3,4-dihydro-2H-benzo[b][1,4]oxazin-2-yl)propanoic acid]	*** (The symbol “***” indicates a value in the range of greater than 150 to 200)	*** (The symbol “***” indicates a value in the range of greater than 150 to 200)
< 500	< 500	O=C(O)CC[C@H]1CN(S(=O)(=O)c2cccc(C(F)(F)F)c2)c2cc(-c3cc(C(F)(F)F)ccc3F)ccc2O1 [Compound 2O, (S)-3-(6-(2-fluoro-5-(trifluoromethyl)phenyl)-4-((3-(trifluoromethyl)phenyl)-sulfonyl)-3,4-dihydro-2H-benzo[b][1,4]oxazin-2-yl)propanoic acid]	*** (The symbol “***” indicates a value in the range of greater than 150 to 200)	*** (The symbol “***” indicates a value in the range of greater than 150 to 200)
< 500	< 500	Cc1cccc(-c2ccc3c(c2)N(S(=O)(=O)c2cccc(C(F)(F)F)c2)C[C@H](CCC(=O)O)O3)c1 [Compound 2Q, (S)-3-(6-(m-tolyl)-4-((3-(trifluoromethyl)phenyl)-sulfonyl)-3,4-dihydro-2H-benzo[b][1,4]oxazin-2-yl)propanoic acid]	*** (The symbol “***” indicates a value in the range of greater than 150 to 200)	*** (The symbol “***” indicates a value in the range of greater than 150 to 200)
< 500	< 500	O=C(O)CC[C@H]1CN(S(=O)(=O)c2cccc(C(F)(F)F)c2)c2cc(-c3cccc(Cl)c3F)ccc2O1 [Compound 2R, (S)-3-(6-(3-chloro-2-fluorophenyl)-4-((3-(trifluoromethyl)phenyl)-sulfonyl)-3,4-dihydro-2H-benzo[b][1,4]oxazin-2-yl)propanoic acid]	*** (The symbol “***” indicates a value in the range of greater than 150 to 200)	**** (The symbol “****” indicates a value greater than 200)
< 500	< 500	COc1ccccc1-c1ccc2c(c1)N(S(=O)(=O)c1cccc(C(F)(F)F)c1)C[C@H](CCC(=O)O)O2 [Compound 2T, (S)-3-(6-(2-methoxyphenyl)-4-((3-(trifluoromethyl)phenyl)-sulfonyl)-3,4-dihydro-2H-benzo[b][1,4]oxazin-2-yl)propanoic acid]	*** (The symbol “***” indicates a value in the range of greater than 150 to 200)	**** (The symbol “****” indicates a value greater than 200)
500 to 5000	< 500	COc1ccc(-c2ccc3c(c2)N(S(=O)(=O)c2cccc(C(F)(F)F)c2)C[C@H](CCC(=O)O)O3)cc1 [Compound 2U, (S)-3-(6-(4-methoxyphenyl)-4-((3-(trifluoromethyl)phenyl)-sulfonyl)-3,4-dihydro-2H-benzo[b][1,4]oxazin-2-yl)propanoic acid]	* (The symbol “*” indicates a value in the range of 25 to 90)	*** (The symbol “***” indicates a value in the range of greater than 150 to 200)
< 500	< 500	CC(C)c1cccc(-c2ccc3c(c2)N(S(=O)(=O)c2cccc(C(F)(F)F)c2)C[C@H](CCC(=O)O)O3)c1 [Compound 2Y, (S)-3-(6-(3-isopropylphenyl)-4-((3-(trifluoromethyl)phenyl)-sulfonyl)-3,4-dihydro-2H-benzo[b][1,4]oxazin-2-yl)propanoic acid]	** (The symbol “**” indicates a value in the range of greater than 90 to 150)	*** (The symbol “***” indicates a value in the range of greater than 150 to 200)
> 10000	< 500	CC(C)c1ccc(-c2ccc3c(c2)N(S(=O)(=O)c2cccc(C(F)(F)F)c2)C[C@H](CCC(=O)O)O3)cc1 [Compound 2Z, (S)-3-(6-(4-isopropylphenyl)-4-((3-(trifluoromethyl)phenyl)-sulfonyl)-3,4-dihydro-2H-benzo[b][1,4]oxazin-2-yl)propanoic acid]	–	** (The symbol “**” indicates a value in the range of greater than 90 to 150)
< 500	< 500	O=C(O)CC[C@H]1CN(S(=O)(=O)c2cccc(C(F)(F)F)c2)c2cc(-c3cccc(C(F)(F)F)n3)ccc2O1 [Compound 4A, (S)-3-(4-((3-(trifluoromethyl)-phenyl)sulfonyl)-6-(6-(trifluoromethyl)pyridin-2-yl)-3,4-dihydro-2H-benzo[b][1,4]oxazin-2-yl)propanoic acid]	*** (The symbol “***” indicates a value in the range of greater than 150 to 200)	*** (The symbol “***” indicates a value in the range of greater than 150 to 200)
